Reference: US20090054368A1, “Substituted gemini surfactant compounds” (University of Saskatchewan, priority 2007, published 2009)
Values joined by “and” are separate entries in the source; they are usually repeats but may differ in a detail not shown here. Equal values may be shown once. “Also recorded” adds a separate entry of the source.

Assays:
[1] = Average membrane charge density calculation for plasmid DNA-gemini surfactant-DOPE nanoparticles; type: physicochemical; details: calculated from head group areas
[2] = Small angle X-ray scattering (SAXS) of plasmid DNA-gemini surfactant-DOPE complexes; type: physicochemical; details: for d-spacing of main scattering peak / phase / morphology of lipid bilayers from scattering pattern (in words) / d-spacing of adjacent DNA molecules: plasmid DNA-gemini surfactant-DOPE complexes; for d-spacing of adjacent DNA molecules: weak peaks at q=0.172 Å^−1; for scattering peak position q, DNA: scattering from adjacent DNA molecules
Method: SAXS measurements were carried out at beamline X21 at the National Synchrotron Light Source at Brookhaven National Laboratory. Beamline X21 is based on a wiggler source, with a helium gas-cooled Si(111) monochromator selecting the photon energy. The X-ray beam is focused by a toroidal mirror into the experimental station. Three pairs of precision slits, positioned at 4 m, 1 m, and 5 cm upstream of the sample, define the beam. The scattering pattern is recorded using a 13 cm Mar CCD detector (Mar USA, Evanston, Ill.) located 1.26 m (calibrated with the scattering pattern of silver behenate) downstream of the sample. The measurements were performed with 12 KeV x-rays and the data covered a q-range from 0.008 Å^−1 to 0.375 Å^−1. All beam paths are under vacuum, except at the sample position, where the sample is in air, and kapton windows terminate the vacuum beam paths. Samples were loaded into 1.5 mm capillaries (Charles Supper #15-BG, Natick Mass.) and data recorded at room temperature. All spectra were processed to remove background contributions by subtracting the scattering profile obtained for a water-filled capillary. Peak fitting was carried out using the open-sources software package “fityk” (available at http://www.unipress.waw.pl/fityk/; last accessed on Jul. 5, 2007) using multiple Gaussian functions.
Solutions for SAXS analysis were prepared by addition of appropriate amounts of stock surfactant, DNA, and DOPE solutions, followed by sonication (to ensure complete mixing) where appropriate. The pGTmCMV.IFN-GFP plasmid DNA was used in the SAXS studies. The final concentrations of DNA and DOPE were 0.075 mM (50 μg/mL) and 1.00 mM (0.75 mg/mL), respectively. The concentration of gemini surfactant was adjusted as needed to obtain the desired 1:10 DNA:surfactant charge ratio. Preliminary x-ray scattering studies indicated these concentrations to be too dilute to give good scattering signals; as a result, the samples were concentrated 5× by evaporation.

[3] = from reference [24]; cited from earlier work
[4] = test system: COS-7 African Green monkey kidney fibroblast cells; assay: Transfection assay (luciferase production after transfection with plasmid DNA-gemini surfactant complexes); type: cell-based; details: PGL complexes, with DOPE added
Method: COS-7 African Green monkey kidney fibroblast cells (ATCC CRL1651) were prepared for transfection in antibiotic and 10% fetal bovine serum supplemented minimal Eagle's medium (MEM). The day before transfection, 5×10^4 cells/well were seeded in 24-well plates (Greiner Labortechnik GmbH, Germany). The supplemented MEM was changed to MEM one hour prior to transfection.
The pMASIA.Luc plasmid DNA was used at a concentration of 0.2 μg/well for transfection. The transfection mixtures were prepared as follows: 0.2 μg of plasmid DNA was mixed with aliquots of gemini surfactant solution to obtain a plasmid DNA:gemini surfactant charge ratio of 1:10 and incubated at room temperature for 15 minutes. To this mixture, 25 μL of DOPE liposomes were added. The transfection mixtures were incubated for 30 minutes at room temperature prior to transfection and added to the cells, dropwise. The plates were incubated for 5 hours at 37° C. in a CO2 incubator. Dc-Chol (30-[N—(N′,N′-Dimethylaminoethane)-carbamoyl]cholesterol) was used for comparison and, as a positive control, cells were also transfected with Lipofectamine Plus™ Reagent (Invitrogen Life Technologies, Carlsbad, Calif.), according to the manufacturer's protocol, with 0.2 μg of plasmid DNA per well.
Luciferase production was quantified using the Promega Steady-Glo™ luciferase assay system. Luminescence was monitored using a Turner Biosystems (Sunnyvale, Calif., USA) Reporter microplate luminometer. Statistical analysis was performed using ANOVA and Tukey's multiple comparison test. […] Equal variances were tested using Bartlett's test, and normality by the D'Agostino & Pearson omnibus normality test.

cultured cells = assay: Viability of cells following transfection; type: cell-based; details: after transfection with plasmid DNA-gemini surfactant-DOPE or Lipofectamine Plus; relative to controls (no treatment or plasmid DNA alone)
Method: Ideal transfection reagents are minimally toxic and/or disruptive to cells. Accordingly, the N-substituted surfactants were tested for toxicity in cultured cells. The viability of cells following transfection with either plasmid DNA-gemini surfactant-DOPE or Lipofectamine Plus are shown in FIG. 3. The aza-substituted surfactants 12-5N-12, 12-8N-12, and 12-7N-12 had similar toxicity compared to the Lipofectamine Plus reagent, with cell viability around 80% of the controls (i.e., no treatment or plasmid DNA alone; p>0.05).

[5] = test system: COS-7 African Green monkey kidney fibroblast cells; assay: Transfection assay (luciferase production after transfection with plasmid DNA-gemini surfactant complexes); type: cell-based; details: PG complexes, complexed with DNA in the absence of helper lipid (DOPE)
[6] = Size (hydrodynamic radius) and zeta potential as a function of pH; type: physicochemical; details: PGL complexes
Method: Determinations of size (hydrodynamic radius, RH) and zeta potential (ζ) as a function of pH were carried out using a Malvern Instruments (Worcestershire, UK) ZetaSizer NanoZs with MPT-2 auto-titrator attachment. 10 mL of the desired sample was placed in the titration cell of the auto-titrator and samples were titrated (in 0.2-0.5 pH unit increments) with 0.1 M NaOH and 0.1 M HCl over the desired pH range. Size and zeta potential measurement were made in triplicate at each pH point, and the reported values represent the average±standard error. pH titrations of aqueous gemini surfactant solutions were made at a surfactant concentration of 2.00 mM, above the critical micelle concentration in all cases.
Solutions for size, zeta potential, and circular dichrosicm (CD) measurements were prepared, in larger volumes, as described above for the transfection experiments using a pGTmCMV.IFN-GFP plasmid DNA, previously constructed in our lab. Solutions containing only surfactant and plasmid DNA were prepared by addition of an aliquot of stock plasmid DNA to the gemini surfactant solution to a charge ratio of 1:10 (DNA:surfactant).

[7] = previous work [11]; cited from earlier work
DNA = assay: Binding constant between py-s-12 surfactants and DNA from changes in the UV spectrum of the pyrene moiety; set-up: species or system salmon; details: estimated from changes in the UV spectrum of the pyrene moiety
Text: Similar to a series of peptide substituted pyrene compounds described in [51], the S1-S0, S2-S0, and S3-S0 transitions have lambdamax values of 376, 343, and 276 nm, respectively. The broadening of the absorbance bands of pyrene, the red shift in the absorbance band, and the observed hyperchromism in the presence of DNA are evidence of complexed pyrene compounds Quantitative estimates of the binding constants between py-s-12 surfactants and DNA were obtained by monitoring changes in the UV spectrum of the pyrene moiety. The binding constant for py-3-12 and DNA was estimated to be 5.9×10^3 L mol^−1 and that of py-6-12 was 1.9×10^4 L mol^−1. The stronger binding of py-6-12 to DNA implied that the distance between the cationic head groups is more suitable to electrostatically bind to DNA.
Pyrene, 6-bromohexanoyl chloride, anhydrous aluminum chloride, triethylsilane, trifluoroacetatic acid, N,N,N′,N′-tetramethylpropanediamine, N,N,N′,N′-tetramethylhexanediamine, and 1-bromododecane were purchased from Aldrich Inc. All solutions were prepared using analytical-grade water obtained from a Millipore Milli-Q filtration system. The sodium salt of double-stranded (ds) salmon sperm DNA (about 2 kbp, as stated by the manufacturer, Sigma) was used as received. […]

[8] = plasmid DNA-gemini surfactant-DOPE systems

Row | Compound | membrane charge density σM [1] | d-spacing of main scattering peak [2] | phase / morphology of lipid bilayers from scattering pattern (in words) [2] | scattering peak position q, lamellar (L) phase [2, 8] | scattering peak position q, DNA [2, 8] | Head group area a0 [3] | transfection efficiency (in words) [4] | cell viability (cultured cells) | transfection efficiency (in words) [5] | other results
1 | CCCCCCCCCCCC[N+](C)(C)CC[N+](C)(C)CCCCCCCCCCCC.[Br-].[Br-] [12-2-12, reference compound] | 1.43 ×10^−2 e/Å^2 | 61.7 Å | lamellar (L) phase | 0.203 (L) Å^−1 and 0.102 Å^−1 | 0.172 Å^−1 | 0.89 ± 0.05 nm^2/molecule |  |  |  | d-spacing of adjacent DNA molecules [2]: 36.5 Å
2 | CCCCCCCCCCCC[N+](C)(C)CC(O)C(O)C[N+](C)(C)CCCCCCCCCCCC.[Br-].[Br-] (stereo not drawn) [12-4(OH)2-12] |  |  | mixed lamellar, hexagonal, and cubic phases |  |  |  | enhanced transfection efficiency compared to 12-3-12; also recorded: higher levels of transfection efficiency compared to the non-substituted gemini surfactant 12-3-12 |  |  | 
3 | CCCCCCCCCCCC[N+](C)(C)CCN(C)CC[N+](C)(C)CCCCCCCCCCCC [12-5N-12] | 1.05 ×10^−2 e/Å^2 | 58.6 Å | lamellar (L) phase | 0.107 Å^−1 and 0.207 (L) Å^−1 | 0.172 Å^−1 and 0.173 Å^−1 | 1.30 ± 0.03 nm^2/molecule | enhanced transfection efficiency compared to the un-substituted surfactant, 12-3-12; also recorded: higher levels of transfection efficiency compared to the non-substituted gemini surfactant 12-3-12 | around 80% | similarly low transfection efficiency compared to 12-3-12 | d-spacing of adjacent DNA molecules [2]: 36.5 Å; transfection efficiency (in words) ([4]; listed as 125N-12): less efficient in DNA transfection
4 | CCCCCCCCCCCC[N+](C)(C)CCCN(C)CCC[N+](C)(C)CCCCCCCCCCCC.[Br-].[Br-] [12-7N-12, 1,9-bis(dodecyl)-1,1,5,9,9-pentamethyl-5-aza-1,9,-nonanediammonium dibromide] | 0.748 ×10^−2 e/Å^2 | 59.6 Å |  |  |  | 2.06 ± 0.20 nm^2/molecule | enhanced transfection efficiency compared to the un-substituted surfactant, 12-3-12; also recorded: higher levels of transfection efficiency compared to the non-substituted gemini surfactant 12-3-12; also recorded: most efficient aza-substituted surfactant; also recorded: highest | around 80% | similarly low transfection efficiency compared to 12-3-12 | pH dependence of particle size (in words) [6]: remained essentially unchanged; pH dependence of zeta potential (in words) [6]: increased as a function of decreasing pH
5 | CCCCCCCCCCCC[N+](C)(C)CCCCCCCC[N+](C)(C)CCCCCCCCCCCC.[Br-].[Br-] [12-8-12] |  |  |  |  |  |  |  |  |  | transfection efficiency within the 12-s-12 series, s=3-8 (in words) [7]: lowest
6 | CCCCCCCCCCCC[N+](C)(C)CCN(C)CCN(C)CC[N+](C)(C)CCCCCCCCCCCC [12-8N-12] | 0.780 ×10^−2 e/Å^2 | 59.6 Å | lamellar structure | 0.105 Å^−1 and 0.210 (L) Å^−1 | 0.170 Å^−1 and 0.169 (DNA), Å^−1 | 1.95 ± 0.13 nm^2/molecule |  | around 80% | similarly low transfection efficiency compared to 12-3-12 | scattering peak position q, no phase assigned [2, 8]: 0.119 Å^−1
7 | CCCCCCCCCCCC[N+](C)(C)CCOCC[N+](C)(C)CCCCCCCCCCCC.[Br-].[Br-] [12-E01-12] |  |  | mixed lamellar, hexagonal, and cubic phases |  |  |  | enhanced transfection efficiency compared to 12-3-12; also recorded: higher levels of transfection efficiency compared to the non-substituted gemini surfactant 12-3-12 |  |  | 
8 | CCCCCCCCCCCC[N+](C)(C)CCC[N+](C)(C)CCCCCCc1ccc2ccc3cccc4ccc1c2c34.[Br-].[Br-] [py-3-12, N1-dodecyl,N1,N1,N3,N3-tetramethyl-N3-(6-(pyren-6-yl)-hexyl)propane-1,3-diammonium dibromide] |  |  |  |  |  |  |  |  |  | binding constant with DNA (DNA): 5900 L/mol
9 | CCCCCCCCCCCC[N+](C)(C)CCCCCC[N+](C)(C)CCCCCCc1ccc2ccc3cccc4ccc1c2c34.[Br-].[Br-] [py-6-12, N1-dodecyl,N1,N1,N6,N6-tetramethyl-N6-(6-(pyren-6-yl)-hexyl)hexane-1,6-diammonium dibromide] |  |  |  |  |  |  |  |  |  | binding constant with DNA (DNA): 19000 L/mol
